In US20160039802A1, “3-PYRIMIDIN-4-YL-OXAZOLIDIN-2-ONES AS INHIBITORS OF MUTANT IDH” (NOVARTIS AG, priority 2013, published 2016):

Target: T1, IDH1 (R132H) mutant (Homo sapiens, UniProt O75874, R132H)
T1 construct: His6 with PreScission site (N, cleaved yes); made in house; host or cells: E. coli Rosetta 2(DE3)
Test: Fluorescence biochemical assay (NADPH oxidation)
Settings: mIDH R132H 10 nM, 10 μM NADPH, 100 μM α-KG; range where run multiple times
Method: The IDH1 (R132H) mutant catalyzes the reduced form of NADP+ (NADPH) and α-ketoglutarate (α-KG) to form nicotinamide adenine dinucleotide phosphate (NADP+) and R(−)-2-hydroxyglutarate (2HG). […] Reactions were monitored using the Perkin-Elmer Envision, Model 2101. […] The final reaction mixture contained 2.5% DMSO and test compounds with concentrations ranging 0.0000008-25 μM. The IDH1 (R132H) enzyme was used at a final concentration of 10 nM. Curve fitting for dose response […] determinations was done in the Helios module of the software package DAVID. The 4-parameter logistic model was used: y=min+((max−min)/1+(x/IC50)^shape)

T1 sequence (O75874 whole entry R132H): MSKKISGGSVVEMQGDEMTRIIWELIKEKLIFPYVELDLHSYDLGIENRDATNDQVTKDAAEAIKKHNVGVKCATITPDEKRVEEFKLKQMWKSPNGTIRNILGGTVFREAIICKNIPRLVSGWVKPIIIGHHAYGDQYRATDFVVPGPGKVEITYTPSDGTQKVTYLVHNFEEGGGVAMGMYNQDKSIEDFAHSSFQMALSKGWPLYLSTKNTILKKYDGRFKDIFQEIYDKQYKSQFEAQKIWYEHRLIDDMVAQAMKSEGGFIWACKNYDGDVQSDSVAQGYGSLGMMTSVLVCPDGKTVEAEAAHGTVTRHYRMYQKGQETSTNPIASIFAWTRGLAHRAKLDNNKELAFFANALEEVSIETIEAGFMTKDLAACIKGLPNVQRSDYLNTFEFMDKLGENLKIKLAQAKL

IC50 [nM] | Structure (SMILES)
96 | C[C@H](Nc1nccc(N2C(=O)OC[C@]2(C)C2CC2)n1)c1ccc(CN2CCC(N3CCOCC3)CC2)cc1 [Example 68, (S)-4-cyclopropyl-4-methyl-3-(2-(((S)-1-(4-((4-morpholinopiperidin-1-yl)methyl)phenyl)ethyl)amino)pyrimidin-4-yl)oxazolidin-2-one]
25 | C[C@H](Nc1nccc(N2C(=O)OC[C@@H]2C2CC2)n1)c1ccc(CN2CCC(N(C)C)C(F)(F)C2)c(F)c1 (stereo partly drawn) [Example 69, (4S)-4-cyclopropyl-3-(2-(((1S)-1-(4-((4-(dimethylamino)-3,3-difluoropiperidin-1-yl)methyl)-3-fluorophenyl)ethyl)amino)pyrimidin-4-yl)oxazolidin-2-one]
33 | C[C@H](Nc1nccc(N2C(=O)OC[C@]2(C)C2CC2)n1)c1ccc(CN2CCC(N3CCOCC3)CC2)c(F)c1 [Example 67, (S)-4-cyclopropyl-3-(2-(((S)-1-(3-fluoro-4-((4-morpholinopiperidin-1-yl)methyl)phenyl)ethyl)amino)pyrimidin-4-yl)-4-methyloxazolidin-2-one]

Second part, the compound before the results:

Structure (SMILES) | IC50 [nM]
C[C@H](Nc1nc(Cl)cc(N2C(=O)OC[C@@H]2C2CC2)n1)c1ccccc1 [Example 2, (S)-3-(6-chloro-2-((S)-1-phenylethylamino)pyrimidin-4-yl)-4-cyclopropyloxazolidin-2-one] | 316
C[C@H](Nc1ncc(F)c(N2C(=O)OC[C@@H]2C2CC2)n1)c1cnc(C(C)(F)F)c(Cl)c1 [Example 22, (S)-3-(2-((S)-1-(5-chloro-6-(1,1-difluoroethyl)pyridin-3-yl)ethylamino)-5-fluoropyrimidin-4-yl)-4-cyclopropyloxazolidin-2-one] | 1140
Cc1ccc(-c2ncc([C@H](C)Nc3nc(C)cc(N4C(=O)OC[C@@H]4C4CC4)n3)s2)cn1 [Example 13, (S)-4-cyclopropyl-3-(6-methyl-2-(((S)-1-(2-(6-methylpyridin-3-yl)thiazol-5-yl)ethyl)amino)pyrimidin-4-yl)oxazolidin-2-one] | 191
C[C@H](Nc1nc(Cl)cc(N2C(=O)OC[C@@H]2C2CC2)n1)c1cnn(-c2ccc(Cl)cc2)c1 [Example 5, (S)-3-(6-chloro-2-(((S)-1-(1-(4-chlorophenyl)-1H-pyrazol-4-yl)ethyl)amino)pyrimidin-4-yl)-4-cyclopropyloxazolidin-2-one] | 33.2
C[C@H](Nc1ncc(F)c(N2C(=O)OC[C@@H]2C2CC2)n1)c1nc(-c2ccc(Cl)cc2)no1 [Example 29, (S)-3-(2-((S)-1-(3-(4-chlorophenyl)-1,2,4-oxadiazol-5-yl)ethylamino)-5-fluoropyrimidin-4-yl)-4-cyclopropyloxazolidin-2-one] | 124
C[C@H](Nc1nc(Cl)cc(N2C(=O)OC[C@@H]2C2CC2)n1)c1nnc(-c2ccc(Cl)cc2)s1 [Example 4, (S)-3-(6-chloro-2-(((S)-1-(5-(4-chlorophenyl)-1,3,4-thiadiazol-2-yl)ethyl)amino)pyrimidin-4-yl)-4-cyclopropyloxazolidin-2-one] | 24.8
C[C@H](Nc1nccc(N2C(=O)OC[C@@H]2C2CC2)n1)c1cnc(-c2ccnc(C(F)(F)F)c2)s1 [Example 15, (S)-4-cyclopropyl-3-(2-(((S)-1-(2-(2-(trifluoromethyl)pyridin-4-yl)thiazol-5-yl)ethyl)amino)pyrimidin-4-yl)oxazolidin-2-one] | 108
C[C@H](Nc1nccc(N2C(=O)OC[C@@H]2C2CC2)n1)c1cnc(OCC(F)(F)F)c(Cl)c1 [Example 25, (S)-3-(2-((S)-1-(5-chloro-6-(2,2,2-trifluoroethoxy)pyridin-3-yl)ethylamino)pyrimidin-4-yl)-4-cyclopropyloxazolidin-2-one] | 372
C[C@H](Nc1nccc(N2C(=O)OC[C@@H]2C2CC2)n1)c1cnc(-c2ccc(C(F)(F)F)nc2)s1 [Example 14, (S)-4-cyclopropyl-3-(2-(((S)-1-(2-(6-(trifluoromethyl)pyridin-3-yl)thiazol-5-yl)ethyl)amino)pyrimidin-4-yl)oxazolidin-2-one] | 49.1
C[C@H](Nc1ncc(F)c(N2C(=O)OC[C@@H]2C2CC2)n1)c1cnc(OCC(F)(F)F)c(Cl)c1 [Example 21, (S)-3-(2-((S)-1-(5-chloro-6-(2,2,2-trifluoroethoxy)pyridin-3-yl)ethylamino)-5-fluoropyrimidin-4-yl)-4-cyclopropyloxazolidin-2-one] | 1200
Cc1cc(N2C(=O)OC[C@@H]2C2CC2)nc(N[C@H](C)c2cn(-c3ccc(Cl)cc3)nn2)n1 [Example 12, (S)-3-(2-(((R)-1-(1-(4-chlorophenyl)-1H-1,2,3-triazol-4-yl)ethyl)amino)-6-methylpyrimidin-4-yl)-4-cyclopropyloxazolidin-2-one] | 323
C[C@H](Nc1nccc(N2C(=O)OC[C@@H]2C2CC2)n1)c1nc(-c2ccc(Cl)cc2)no1 [Example 28, (S)-3-(2-((S)-1-(3-(4-chlorophenyl)-1,2,4-oxadiazol-5-yl)ethylamino)pyrimidin-4-yl)-4-cyclopropyloxazolidin-2-one] | 62.7
C[C@H](Nc1nccc(N2C(=O)OC[C@@H]2C2CC2)n1)c1ccccc1 [Example 23, (S)-4-cyclopropyl-3-(2-((S)-1-phenylethylamino)pyrimidin-4-yl)oxazolidin-2-one] | 1370
C[C@H](Nc1ncc(F)c(N2C(=O)OC[C@@H]2C2CC2)n1)c1ccccc1 [Example 24, (S)-4-cyclopropyl-3-(5-fluoro-2-((S)-1-phenylethylamino)pyrimidin-4-yl)oxazolidin-2-one] | 1190
C[C@H](Nc1nccc(N2C(=O)OC[C@@H]2C2CC2)n1)c1ccn(-c2ccc(C(F)(F)F)nc2)n1 [Example 17, (S)-4-cyclopropyl-3-(2-(((S)-1-(1-(6-(trifluoromethyl)pyridin-3-yl)-1H-pyrazol-3-yl)ethyl)amino)pyrimidin-4-yl)oxazolidin-2-one] | 169
C[C@H](Nc1nccc(N2C(=O)OC[C@@H]2C2CC2)n1)c1cnc(-c2ccc(C(F)F)cc2)s1 [Example 16, (S)-4-cyclopropyl-3-(2-(((S)-1-(2-(4-(difluoromethyl)phenyl)thiazol-5-yl)ethyl)amino)pyrimidin-4-yl)oxazolidin-2-one] | 29.2
C[C@H](Nc1nc(F)cc(N2C(=O)OC[C@@H]2C2CC2)n1)c1ccccc1 [Example 1, (S)-4-cyclopropyl-3-(6-fluoro-2-((S)-1-phenylethylamino)pyrimidin-4-yl)oxazolidin-2-one] | 365
C[C@H](Nc1nc(Cl)cc(N2C(=O)OC[C@@H]2C2CC2)n1)c1cnc(N2CCOCC2)s1 [Example 6, (S)-3-(6-chloro-2-(((S)-1-(2-morpholinothiazol-5-yl)ethyl)amino)pyrimidin-4-yl)-4-cyclopropyloxazolidin-2-one] | 934
C[C@H](Nc1nc(Cl)cc(N2C(=O)OC[C@@H]2C2CC2)n1)c1cn(-c2ccc(Cl)cc2)cn1 [Example 26, (S)-3-(6-chloro-2-(((S)-1-(1-(4-chlorophenyl)-1H-imidazol-4-yl)ethyl)amino)pyrimidin-4-yl)-4-cyclopropyloxazolidin-2-one] | 349

Target: T2, Mutant IDH1 R132H (Homo sapiens, UniProt O75874, R132H)
T2 construct: His6 with PreScission site (N, cleaved yes); made in house; host or cells: E. coli Rosetta 2(DE3)
Test: Mutant IDH1 biochemical assay: LC-MS detection of 2-HG; note: mIDH R132H 0.25 nM, 5 µM NADPH
Settings: mIDH R132H […], 5 uM NADPH, 100 uM alpha-KG, 45 minutes incubation; range where run multiple times
From the text: Mutant IDH1 biochemical Sssay: LC-MS Detection of 2-HG.

T2 sequence (O75874 whole entry R132H): as above

Structure (SMILES) | IC50 [nM]
C[C@H](Nc1nccc(N2C(=O)OCC2(C)C2CC2)n1)c1ccc(CN2CCN(C)CC2)cc1 (single isomer, unassigned) [Example 47] | 703
C[C@H](Nc1nccc(N2C(=O)OC[C@]2(C)C2CC2)n1)c1ccc(CN2CCC(N)(CO)CC2)c(F)c1 [Example 42, (S)-3-(2-(((S)-1-(4-((4-amino-4-(hydroxymethyl)piperidin-1-yl)methyl)-3-fluorophenyl)ethyl)amino)pyrimidin-4-yl)-4-cyclopropyl-4-methyloxazolidin-2-one] | 217
C[C@H](Nc1nccc(N2C(=O)OCC2(C)C2CC2)n1)c1ccc(CN2CCN(C)C(C)(C)C2)cc1 (single isomer, unassigned) [Example 55] | 77.9
C[C@H](Nc1nccc(N2C(=O)OC[C@]2(C)C2CC2)n1)c1ccc(CN2CCC(O)(C(F)(F)F)CC2)c(F)c1 [Example 32, (S)-4-cyclopropyl-3-(2-(((S)-1-(3-fluoro-4-((4-hydroxy-4-(trifluoromethyl)piperidin-1-yl)methyl)phenyl)ethyl)amino)pyrimidin-4-yl)-4-methyloxazolidin-2-one] | 13.3
C[C@H](Nc1nccc(N2C(=O)OC[C@]2(C)C2CC2)n1)c1ccc(CN2CCC(C)(N)CC2)c(F)c1 [Example 43, (S)-3-(2-(((S)-1-(4-((4-amino-4-methylpiperidin-1-yl)methyl)-3-fluorophenyl)ethyl)amino)pyrimidin-4-yl)-4-cyclopropyl-4-methyloxazolidin-2-one] | 151
C[C@H](Nc1nccc(N2C(=O)OCC2(C)C2CC2)n1)c1ccc(CN2CCN(C)C(C)(C)C2)cc1 (single isomer, unassigned) [Example 56] | 527
CC(Nc1nccc(N2C(=O)OC[C@@]2(C)C2CC2)n1)c1nc(-c2ccc(Cl)cc2)no1 (single isomer, unassigned) [Example 52] | 32.6 to 54
C[C@H](Nc1ncc(F)c(N2C(=O)OCC2(C)C2CC2)n1)c1ccc(CN2CCC(N(C)C)CC2)c(F)c1 (stereo partly drawn) [Example 36, 4-cyclopropyl-3-(2-(((S)-1-(4-((4-(dimethylamino)piperidin-1-yl)methyl)-3-fluorophenyl)ethyl)amino)-5-fluoropyrimidin-4-yl)-4-methyloxazolidin-2-one] | 963
C[C@H](Nc1nccc(N2C(=O)OCC2(C)C2CC2)n1)c1ccc(CN2CCN(C)CC2)cc1 (single isomer, unassigned) [Example 48] | 2660
